# Measured values: US5985878A, “Angiogenesis inhibiting pyridazinamines” (Janssen Pharmaceuticals, N.V., priority 1996, dated 1999)
# Columns and labels:
# rat aortic ring = assay: Angiogenesis inhibitory activity in vitro, rat aortic ring model (microvessel formation); type: cell-based; conditions: 192 h, microvessel area following eight days in culture
# Protocol: Angiogenosis inhibitory activity was measured in vitro using the rat aortic ring model of angiogenesis as described by Nicosia, R. F. and Ottinetti in "Laboratory Investigation", vol. 63, p. 115, 1990. The ability of compounds to inhibit microvessel formation was compared to velicle-treatedcontrol rings.
# angiogenesis = assay: In vivo angiogenesis inhibitory activity, Matrigel model; design: species or system warm-blooded animal; conditions: po, administered orally
# Protocol: The in vivo angiogenesis inhibitory activity was measured using the Matrigel model, as described in U.S. Pat. No. 5,382,514. Briefly, a liquid, containing extracts of murine basement membrane and an angiogenic growth factor (e.g. VEGF, bFGF, aFGF), was injected in a warm-blooded animal where it fonns a gel matrix. After a period of time, the gel is recovered from the anmimal and angiogenesis is quantitated. The test compounds were administered orally at a dose of 0.1 mg/kg.
SMILES,IC50 (rat aortic ring),inhibition in vivo at 0.1 mg/kg (angiogenesis)
Cc1nsc(-c2ccc(N3CC[C@@H](c4cccc(C(F)(F)F)c4)[C@@H](C)C3)nn2)n1 (relative stereo) [Compound 108],200 pM,
"Cc1nsc(-c2ccc(N3CCN(c4cccc(C(F)(F)F)c4)CC3)nn2)n1 [Compound 1, 3-(3-methyl-1,2,4-thiadiazol-5-yl)-6-[4-[3-(trifluoromethyl)phenyl]-1-piperazinyl]pyridazine]",300 pM,
"Cc1nsc(-c2ccc(N3CCN(c4cccc(Cl)c4)CC3)nn2)n1 [Compound 2, 3-[4-(3-chlorophenyl)-1-piperazinyl]-6-(3-methyl-1,2,4-thiadiazol-5-yl)pyridazine]",600 pM,> 70%
Cc1nsc(-c2ccc(N3CCN(c4cccc(Cl)c4)C(C)C3)nn2)n1 (stereo not shown) [Compound 13],800 pM,
Cc1nsc(-c2ccc(N3CCN(c4cc(Cl)cc(Cl)c4)CC3)nn2)n1 [Compound 23],50 pM,
Cc1nsc(-c2ccc(N3CCN(c4cccc(Cl)c4Cl)CC3)nn2)n1 [Compound 24],300 pM,
Cc1nsc(-c2ccc(N3CCN(c4cc(Cl)ccc4Cl)CC3)nn2)n1 [Compound 27],200 pM,
Cc1nsc(-c2ccc(N3CCC(c4cccc(C(F)(F)F)c4)C3)nn2)n1 (stereo not shown) [Compound 30],,> 70%
"Cc1nsc(-c2ccc(N3CCC(c4cccc(C(F)(F)F)c4)CC3)nn2)n1 [Compound 31, 3-(3-methyl-1,2,4-thiadiazol-5-yl)-6-[4-[3-(trifluoromethyl)phenyl]-1-piperidinyl]pyridazine]",52 pM,> 70%
Cc1nsc(-c2ccc(N3CCCC(c4cccc(C(F)(F)F)c4)CC3)nn2)n1 (stereo not shown) [Compound 32],900 pM,
Cc1nsc(-c2ccc(N3CCN(C4CCN(c5cccc(C(F)(F)F)c5)CC4)CC3)nn2)n1 [Compound 44],700 pM,
Cc1nsc(-c2ccc(N3CCC(Nc4cccc(C(F)(F)F)c4)CC3)nn2)n1 [Compound 47],,> 70%
Cc1nsc(-c2ccc(N3CCC(OCc4cccc(C(F)(F)F)c4)CC3)nn2)n1 [Compound 48],500 pM,
"Cc1nsc(-c2ccc(N3CCC(N4CCN(c5cccc(C(F)(F)F)c5)CC4)CC3)nn2)n1 [Compound 53, 3-(3-methyl-1,2,4-thiadiazol-5-yl)-6-[4-[4-[3-(trifluoromethyl)phenyl]-1-piperazinyl]-1-piperidinyl]pyridazine]",300 pM,> 70%
Cc1nsc(-c2ccc(N3CCC(OC(c4ccccc4)c4ccccc4)CC3)nn2)n1 [Compound 54],,> 70%
Cc1nsc(-c2ccc(N3CCC(COc4cccc(Cl)c4)CC3)nn2)n1 [Compound 56],900 pM,
Cc1nsc(-c2ccc(N3CC=C(c4cccc(C(F)(F)F)c4)CC3)nn2)n1 [Compound 66],300 pM,
Cc1nsc(-c2ccc(N3CCN(c4cccc(Br)c4)CC3)nn2)n1 [Compound 72],500 pM,
Cc1nsc(-c2ccc(N3CCN(c4cc(C(F)(F)F)cc(C(F)(F)F)c4)CC3)nn2)n1 [Compound 74],50 pM,> 70%

SMILES,IC50 (rat aortic ring),inhibition in vivo at 0.1 mg/kg (angiogenesis)
COc1ccc(Cl)c(N2CCN(c3ccc(-c4nc(C)ns4)nn3)CC2)c1 [Compound 75],600 pM,> 70%
Cc1nsc(-c2ccc(N3CCN(c4ccccc4C(F)(F)F)CC3)nn2)n1 [Compound 76],200 pM,
Cc1nsc(-c2ccc(N3CCN(c4cc(Cl)c(Cl)cc4Cl)CC3)nn2)n1 [Compound 82],800 pM,> 70%
Cc1nsc(-c2ccc(N3CCN(c4ccc(Br)cc4[N+](=O)[O-])CC3)nn2)n1 [Compound 85],< 100 pM,
"Cc1nsc(-c2ccc(N3CCN(c4ccc(Br)c(C(F)(F)F)c4)CC3)nn2)n1 [Compound 88, 3-[4-[4-bromo-3-(trifluoromethyl)phenyl]-1-piperazinyl]-6-(3-methyl-1,2,4-thiadiazol-5-yl)pyridazine]",,> 70%
Cc1nsc(-c2ccc(N3CCC(c4cc(C(F)(F)F)cc(C(F)(F)F)c4)CC3)nn2)n1 [Compound 111],200 pM,
Cc1nsc(-c2ccc(N3CCC(C(=O)c4cccc(C(F)(F)F)c4)CC3)nn2)n1 [Compound 130],300 pM,
Cc1nsc(-c2ccc(N3CCC(Cc4cccc(C(F)(F)F)c4)CC3)nn2)n1 [Compound 132],200 pM,
Cc1nsc(-c2ccc(N3CCC(C(O)c4cccc(C(F)(F)F)c4)CC3)nn2)n1 (stereo not shown) [Compound 134],600 pM,> 70%
Cc1nsc(-c2ccc(N3CCC(C(=O)c4cccc(Cl)c4)CC3)nn2)n1 [Compound 135],500 pM,
Cc1nsc(-c2ccc(N3CCC(N(C)Cc4cccc(C(F)(F)F)c4)CC3)nn2)n1 [Compound 137],500 pM,
Cc1nsc(-c2ccc(N3CCC(C(C#N)c4cccc(Cl)c4)CC3)nn2)n1 (stereo not shown) [Compound 138],200 pM,> 70%
Cc1nsc(-c2ccc(N3CCC(Sc4cccc(Cl)c4)CC3)nn2)n1 [Compound 139],500 pM,
Cc1nsc(-c2ccc(N3CCC(N(C)c4cccc(C(F)(F)F)c4)CC3)nn2)n1 [Compound 142],300 pM,
Cc1nsc(-c2ccc(N3CCC(N4CCN(c5cc(Cl)cc(Cl)c5)CC4)CC3)nn2)n1 [Compound 160],200 pM,
Cc1nsc(-c2ccc(N3CCC(N4CCN(c5cc(C(F)(F)F)cc(C(F)(F)F)c5)CC4)CC3)nn2)n1 [Compound 161],< 100 pM,
Cc1nsc(-c2ccc(N3CCC(Nc4cccc(C(F)(F)F)c4)C3)nn2)n1 (stereo not shown) [Compound 169],800 pM,
Cc1nsc(-c2ccc(N3C4CCC3CC(c3cccc(C(F)(F)F)c3)C4)nn2)n1 (stereo not shown) [Compound 177],700 pM,> 70%
